Assay results from PubChem BioAssay AID2060512 (Molecular Pharmacology Branch, DTP, NCI, 2025).
Values belong to the compound of their own block, whether it stands above or below them.

Tested on: 186277-243-T-J2-PDC complex spheroid viability
Test: Anticancer human tumor 186277-243-T-J2-PDC patient-derived colon adenocarcinoma cell line growth inhibition [GQUAD]
Settings: for IC50: curve of first compound; for viability, T/C: stronger effect = lower value
In short: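 Multi-cell-type spheroids of tumor cells with HUVEC and mesenchymal stem cells, treated with drug combinations. Concentrations descend in half-log steps from near clinical Cmax, or from 10 microM where Cmax is unknown; viability read-out.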

[1] = second compound 0.0316 µM, first compound 0.0316 µM
[2] = second compound 0.0316 µM, first compound 0.1 µM
[3] = second compound 0.0316 µM, first compound 0.316 µM
[4] = second compound 0.0316 µM, first compound 1 µM
[5] = second compound 0.0316 µM, first compound 3.16 µM
[6] = second compound 0.0316 µM, first compound 10 µM
[7] = second compound 0.1 µM, first compound 0.0316 µM
[8] = second compound 0.1 µM, first compound 0.1 µM
[9] = second compound 0.1 µM, first compound 0.316 µM
[10] = second compound 0.1 µM, first compound 1 µM
[11] = second compound 0.1 µM, first compound 3.16 µM
[12] = second compound 0.1 µM, first compound 10 µM
[13] = second compound 0.316 µM, first compound 0.0316 µM
[14] = second compound 0.316 µM, first compound 0.1 µM
[15] = second compound 0.316 µM, first compound 0.316 µM
[16] = second compound 0.316 µM, first compound 1 µM
[17] = second compound 0.316 µM, first compound 3.16 µM
[18] = second compound 0.316 µM, first compound 10 µM
[19] = second compound 1 µM, first compound 0.0316 µM
[20] = second compound 1 µM, first compound 0.1 µM
[21] = second compound 1 µM, first compound 0.316 µM
[22] = second compound 1 µM, first compound 1 µM
[23] = second compound 1 µM, first compound 3.16 µM
[24] = second compound 1 µM, first compound 10 µM
[25] = second compound 3.16 µM, first compound 0.0316 µM
[26] = second compound 3.16 µM, first compound 0.1 µM
[27] = second compound 3.16 µM, first compound 0.316 µM
[28] = second compound 3.16 µM, first compound 1 µM
[29] = second compound 3.16 µM, first compound 3.16 µM
[30] = second compound 3.16 µM, first compound 10 µM
[31] = second compound 10 µM, first compound 0.0316 µM
[32] = second compound 10 µM, first compound 0.1 µM
[33] = second compound 10 µM, first compound 0.316 µM
[34] = second compound 10 µM, first compound 1 µM
[35] = second compound 10 µM, first compound 3.16 µM
[36] = second compound 10 µM, first compound 10 µM
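Further: spheroids exposed to drugs for 7 days.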
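Wherever viability, T/C is given: 100% = DMSO vehicle control viability.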

Structure (SMILES): C#Cc1c(F)ccc2cc(O)cc(-c3ncc4c(N5CC6CCC(C5)N6)nc(OCC56CCCN5CC(F)C6)nc4c3F)c12 (stereo unspecified) + Cc1[nH]c2ccc(F)cc2c1-c1nc2c3cccnc3c3ncccc3c2[nH]1
IC50 (second compound 0.0316 µM): 0.0743 µM | IC50 (second compound 0.1 µM): 0.0854 µM | IC50 (second compound 0.316 µM): 0.0641 µM | IC50 (second compound 1 µM): 0.0613 µM | IC50 (second compound 3.16 µM): 0.0517 µM | IC50 (second compound 10 µM): < 0.0316 µM | viability, T/C [1]: 94.1% | viability, T/C [2]: 34.5% | viability, T/C [3]: 14.3% | viability, T/C [4]: 7.64% | viability, T/C [5]: 7.24% | viability, T/C [6]: 5.55% | viability, T/C [7]: 106% | viability, T/C [8]: 41.1% | viability, T/C [9]: 14.2% | viability, T/C [10]: 8.6% | viability, T/C [11]: 7.78% | viability, T/C [12]: 5.66% | viability, T/C [13]: 78.1% | viability, T/C [14]: 30.7% | viability, T/C [15]: 18.1% | viability, T/C [16]: 7.67% | viability, T/C [17]: 7.43% | viability, T/C [18]: 3.69% | viability, T/C [19]: 68.6% | viability, T/C [20]: 36% | viability, T/C [21]: 17.7% | viability, T/C [22]: 7.93% | viability, T/C [23]: 6.21% | viability, T/C [24]: 5.18% | viability, T/C [25]: 56% | viability, T/C [26]: 42.3% | viability, T/C [27]: 19.2% | viability, T/C [28]: 10.7% | viability, T/C [29]: 5.86% | viability, T/C [30]: 3.99% | viability, T/C [31]: 47.4% | viability, T/C [32]: 38.2% | viability, T/C [33]: 16.8% | viability, T/C [34]: 7.64% | viability, T/C [35]: 7.32% | viability, T/C [36]: 2.6%

IC50 (second compound 0.0316 µM): > 10 µM | IC50 (second compound 0.1 µM): > 10 µM | IC50 (second compound 0.316 µM): > 10 µM | IC50 (second compound 1 µM): > 10 µM | IC50 (second compound 3.16 µM): < 0.0316 µM | IC50 (second compound 10 µM): > 10 µM
Structure (SMILES): C=CC(=O)N1CCN(c2nc(=O)n(-c3c(C)ccnc3C(C)C)c3nc(-c4c(O)cccc4F)c(F)cc23)C(C)C1 (stereo unspecified) + Cc1cnc(CNC(=O)c2c(=O)c3ccc(N4CCCN(C)CC4)nc3n3c2sc2ccccc23)cn1
viability, T/C [1]: 89.2% | viability, T/C [2]: 106% | viability, T/C [3]: 105% | viability, T/C [4]: 94.1% | viability, T/C [5]: 109% | viability, T/C [6]: 88.6% | viability, T/C [7]: 84.6% | viability, T/C [8]: 91.3% | viability, T/C [9]: 99% | viability, T/C [10]: 83.7% | viability, T/C [11]: 96.1% | viability, T/C [12]: 76.1% | viability, T/C [13]: 81.5% | viability, T/C [14]: 58.7% | viability, T/C [15]: 75.7% | viability, T/C [16]: 75.3% | viability, T/C [17]: 75.8% | viability, T/C [18]: 66.4% | viability, T/C [19]: 59.9% | viability, T/C [20]: 62% | viability, T/C [21]: 65.6% | viability, T/C [22]: 66.7% | viability, T/C [23]: 68.4% | viability, T/C [24]: 66.1% | viability, T/C [25]: 50.3% | viability, T/C [26]: 47.4% | viability, T/C [27]: 52.4% | viability, T/C [28]: 53.7% | viability, T/C [29]: 62.8% | viability, T/C [30]: 46% | viability, T/C [31]: 53.2% | viability, T/C [32]: 46.5% | viability, T/C [33]: 49.3% | viability, T/C [34]: 56.2% | viability, T/C [35]: 61.3% | viability, T/C [36]: 47.6%

IC50 (second compound 0.0316 µM): 0.433 µM | IC50 (second compound 0.1 µM): 0.634 µM | IC50 (second compound 0.316 µM): 0.35 µM | IC50 (second compound 1 µM): < 0.0316 µM | IC50 (second compound 3.16 µM): < 0.0316 µM | IC50 (second compound 10 µM): < 0.0316 µM
Structure (SMILES): COc1cccc2c1C(=O)c1c(O)c3c(c(O)c1C2=O)CC(O)(C(=O)CO)CC3OC1CC(N)C(O)C(C)O1 (stereo unspecified) + Cc1cnc(CNC(=O)c2c(=O)c3ccc(N4CCCN(C)CC4)nc3n3c2sc2ccccc23)cn1
viability, T/C [1]: 113% | viability, T/C [2]: 84.8% | viability, T/C [3]: 65.2% | viability, T/C [4]: 24.3% | viability, T/C [5]: 1.89% | viability, T/C [6]: 0.15% | viability, T/C [7]: 86.5% | viability, T/C [8]: 78.3% | viability, T/C [9]: 77% | viability, T/C [10]: 32.6% | viability, T/C [11]: 1.48% | viability, T/C [12]: 0.63% | viability, T/C [13]: 59.4% | viability, T/C [14]: 56.3% | viability, T/C [15]: 52.3% | viability, T/C [16]: 23.8% | viability, T/C [17]: 0.99% | viability, T/C [18]: 0.15% | viability, T/C [19]: 45.9% | viability, T/C [20]: 37.5% | viability, T/C [21]: 46.5% | viability, T/C [22]: 19.9% | viability, T/C [23]: 0.12% | viability, T/C [24]: 1.33% | viability, T/C [25]: 43.5% | viability, T/C [26]: 54.4% | viability, T/C [27]: 31.4% | viability, T/C [28]: 13.3% | viability, T/C [29]: 2.48% | viability, T/C [30]: 0.22% | viability, T/C [31]: 39.9% | viability, T/C [32]: 41.3% | viability, T/C [33]: 41.8% | viability, T/C [34]: 15.9% | viability, T/C [35]: 0.24% | viability, T/C [36]: 0.26%
